Source: PubChem BioAssay AID248 (DTP/NCI, 2004)
Values joined by “and” are separate entries in the source; they are usually repeats but may differ in a detail not shown here. Equal entries are not always repeated. Inconclusive results and toxic doses are left out. Cut-off read from the data, not from the text of the source: active = T/C of 150% or more; inactive = T/C below 125%.

System: L1210 leukemia ip in BDF1 mice, survival T/C
Assay: NCI In Vivo Anticancer Drug Screen. Data for tumor model L1210 Leukemia (intraperitoneal) in B6D2F1 (BDF1) mice
Conditions: higher = longer survival
In short: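 Transplantable tumor model; survival measured in treated vs vehicle control mice. Value = treated/control.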

[1] = endpoint: mean survival time, dose: 50.0 mg/kg/injection, schedule: Q01DX001 (ip), vehicle: carboxymethylcellulose (CMC)
[2] = endpoint: mean survival time, dose: 100.0 mg/kg/injection, schedule: Q04DX002 (ip), vehicle: Klucel (hydroxypropylcellulose) (HPC)
[3] = endpoint: mean survival time, dose: 200.0 mg/kg/injection, schedule: Q04DX002 (ip), vehicle: Klucel (hydroxypropylcellulose) (HPC)
[4] = endpoint: mean survival time, dose: 400.0 mg/kg/injection, schedule: Q04DX002 (ip), vehicle: Klucel (hydroxypropylcellulose) (HPC)
[5] = endpoint: mean survival time, dose: 100.0 mg/kg/injection, schedule: Q01DX009 (ip), vehicle: Klucel (hydroxypropylcellulose) (HPC)
[6] = endpoint: mean survival time, dose: 100.0 mg/kg/injection, schedule: Q04DX003 (ip), vehicle: Klucel (hydroxypropylcellulose) (HPC)
[7] = endpoint: mean survival time, dose: 200.0 mg/kg/injection, schedule: Q01DX009 (ip), vehicle: Klucel (hydroxypropylcellulose) (HPC)
[8] = endpoint: mean survival time, dose: 200.0 mg/kg/injection, schedule: Q04DX003 (ip), vehicle: Klucel (hydroxypropylcellulose) (HPC)
[9] = endpoint: mean survival time, dose: 400.0 mg/kg/injection, schedule: Q01DX009 (ip), vehicle: Klucel (hydroxypropylcellulose) (HPC)
[10] = endpoint: mean survival time, dose: 400.0 mg/kg/injection, schedule: Q04DX003 (ip), vehicle: Klucel (hydroxypropylcellulose) (HPC)
[11] = endpoint: mean survival time, dose: 100.0 mg/kg/injection, schedule: Q01DX009 (ip), vehicle: saline with Tween-80
[12] = endpoint: mean survival time, dose: 200.0 mg/kg/injection, schedule: Q01DX009 (ip), vehicle: saline with Tween-80
[13] = endpoint: mean survival time, dose: 100.0 mg/kg/injection, schedule: Q04DX003 (ip), vehicle: saline
[14] = endpoint: mean survival time, dose: 200.0 mg/kg/injection, schedule: Q04DX003 (ip), vehicle: saline
[15] = endpoint: mean survival time, dose: 400.0 mg/kg/injection, schedule: Q04DX003 (ip), vehicle: saline

Measured: T/C

O=C(COc1ccc(Cl)cc1Cl)OC(=O)COc1ccc(Cl)cc1Cl
inactive: endpoint: mean survival time, dose: 12.5 mg/kg/injection, schedule: Q01DX009 (ip), vehicle: carboxymethylcellulose (CMC) 100 % of control and 106 % of control | endpoint: mean survival time, dose: 25.0 mg/kg/injection, schedule: Q01DX009 (ip), vehicle: carboxymethylcellulose (CMC) 102 % of control and 103 % of control | [1] 92 % of control | endpoint: mean survival time, dose: 50.0 mg/kg/injection, schedule: Q04DX003 (ip), vehicle: carboxymethylcellulose (CMC) 92 % of control | endpoint: mean survival time, dose: 100.0 mg/kg/injection, schedule: Q01DX001 (ip), vehicle: carboxymethylcellulose (CMC) 97 % of control | endpoint: mean survival time, dose: 100.0 mg/kg/injection, schedule: Q01DX009 (ip), vehicle: carboxymethylcellulose (CMC) 94 % of control | [2] 95 % of control | endpoint: mean survival time, dose: 100.0 mg/kg/injection, schedule: Q04DX002 (ip), vehicle: carboxymethylcellulose (CMC) 97 % of control and 100 % of control | endpoint: mean survival time, dose: 100.0 mg/kg/injection, schedule: Q04DX003 (ip), vehicle: carboxymethylcellulose (CMC) 94 % of control | endpoint: mean survival time, dose: 200.0 mg/kg/injection, schedule: Q01DX001 (ip), vehicle: carboxymethylcellulose (CMC) 89 % of control | [3] 95 % of control | endpoint: mean survival time, dose: 200.0 mg/kg/injection, schedule: Q04DX002 (ip), vehicle: carboxymethylcellulose (CMC) 97 % of control and 98 % of control | [4] 98 % of control

Nc1c(Cl)[nH]cnc1=S
inactive: endpoint: mean survival time, dose: 224.0 mg/kg/injection, schedule: Q01DX Z (ip), vehicle: methylcellulose (MC) 98 % of control | endpoint: mean survival time, dose: 334.0 mg/kg/injection, schedule: Q01DX Z (ip), vehicle: methylcellulose (MC) 94 % of control | endpoint: mean survival time, dose: 500.0 mg/kg/injection, schedule: Q01DX Z (ip), vehicle: methylcellulose (MC) 94 % of control | endpoint: mean survival time, dose: 750.0 mg/kg/injection, schedule: Q01DX Z (ip), vehicle: methylcellulose (MC) 94 % of control

O=C(Nc1ccc(F)cc1)Nc1nccs1
inactive: endpoint: mean survival time, dose: 100.0 mg/kg/injection, schedule: Q01DX001 (ip), vehicle: Klucel (hydroxypropylcellulose) (HPC) 88 % of control | [5] 98 % of control and 102 % of control | [6] 102 % of control | endpoint: mean survival time, dose: 200.0 mg/kg/injection, schedule: Q01DX001 (ip), vehicle: Klucel (hydroxypropylcellulose) (HPC) 96 % of control | [7] 101 % of control and 117 % of control | [8] 111 % of control | endpoint: mean survival time, dose: 400.0 mg/kg/injection, schedule: Q01DX001 (ip), vehicle: Klucel (hydroxypropylcellulose) (HPC) 93 % of control | [9] 98 % of control | [10] 113 % of control

Cc1cc(C)c2c(=O)[nH][nH]c2n1
inactive: endpoint: mean survival time, dose: 50.0 mg/kg/injection, schedule: Q01DX009 (ip), vehicle: saline with Tween-80 105 % of control | [11] 100 % of control | [12] 91 % of control

O=C(O)CC(C(=O)O)/C(=C\c1ccccc1)c1ccccc1 (stereo not given)
inactive: endpoint: mean survival time, dose: 100.0 mg/kg/injection, schedule: Q04DX002 (ip), vehicle: saline 94 % of control | endpoint: mean survival time, dose: 200.0 mg/kg/injection, schedule: Q04DX002 (ip), vehicle: saline 113 % of control | endpoint: mean survival time, dose: 400.0 mg/kg/injection, schedule: Q04DX002 (ip), vehicle: saline 110 % of control

N#Cc1ncc(-c2ccc(Cl)cc2)nc1Cl
inactive: endpoint: mean survival time, dose: 100.0 mg/kg/injection, schedule: Q01DX009 (ip), vehicle: saline 105 % of control | [13] 91 % of control | endpoint: mean survival time, dose: 200.0 mg/kg/injection, schedule: Q01DX009 (ip), vehicle: saline 113 % of control | [14] 93 % of control | [15] 95 % of control

OCCN1CCN(CCCN2c3ccccc3Oc3ccc(C(F)(F)F)cc32)CC1
inactive: endpoint: mean survival time, dose: 25.0 mg/kg/injection, schedule: Q04DX003 (ip), vehicle: saline 92 % of control | endpoint: mean survival time, dose: 50.0 mg/kg/injection, schedule: Q04DX003 (ip), vehicle: saline 106 % of control

Cc1ccnc(NC(=O)Nc2cc(F)ccc2F)c1
inactive: [5] 92 % of control and 103 % of control | [2] 101 % of control and 90 % of control | [6] 97 % of control | [7] 92 % of control and 89 % of control | [3] 90 % of control | [8] 93 % of control | [9] 94 % of control and 98 % of control | [4] 95 % of control and 90 % of control | [10] 87 % of control

COc1ccc(/C=C(\SS/C(=C/c2ccc(OC)cc2)C(=O)O)C(=O)O)cc1
inactive: endpoint: mean survival time, dose: 100.0 mg/kg/injection, schedule: Q01DX001 (ip), vehicle: saline 89 % of control | endpoint: mean survival time, dose: 200.0 mg/kg/injection, schedule: Q01DX001 (ip), vehicle: saline 94 % of control

OCc1cccs1
inactive: [5] 108 % of control | [6] 97 % of control | [7] 94 % of control | [8] 97 % of control | [9] 103 % of control | [10] 97 % of control

CCCCCCCCCCCCCCC(F)C(=O)OC (stereo not given)
inactive: endpoint: mean survival time, dose: 100.0 mg/kg/injection, schedule: Q01DX009 (sc), vehicle: olive oil, sesame oil, peanut oil 94 % of control | endpoint: mean survival time, dose: 100.0 mg/kg/injection, schedule: Q04DX003 (sc), vehicle: olive oil, sesame oil, peanut oil 102 % of control | endpoint: mean survival time, dose: 200.0 mg/kg/injection, schedule: Q04DX003 (sc), vehicle: olive oil, sesame oil, peanut oil 113 % of control | endpoint: mean survival time, dose: 400.0 mg/kg/injection, schedule: Q04DX003 (sc), vehicle: olive oil, sesame oil, peanut oil 109 % of control

Cc1ccc(S(=O)(=O)N(C)c2ccc(C(=O)O)c3ccccc23)cc1
inactive: endpoint: mean survival time, dose: 100.0 mg/kg/injection, schedule: Q04DX003 (ip), vehicle: saline with Tween-80 105 % of control | endpoint: mean survival time, dose: 200.0 mg/kg/injection, schedule: Q04DX003 (ip), vehicle: saline with Tween-80 97 % of control | endpoint: mean survival time, dose: 400.0 mg/kg/injection, schedule: Q04DX003 (ip), vehicle: saline with Tween-80 100 % of control

NC(C(=O)O)C(=O)c1ccccc1 (stereo not given)
inactive: endpoint: mean survival time, dose: 100.0 mg/kg/injection, schedule: Q01DX009 (ip), vehicle: saline sonified 101 % of control | [13] 102 % of control | endpoint: mean survival time, dose: 200.0 mg/kg/injection, schedule: Q01DX009 (ip), vehicle: saline sonified 101 % of control | [14] 112 % of control | endpoint: mean survival time, dose: 400.0 mg/kg/injection, schedule: Q01DX009 (ip), vehicle: saline sonified 106 % of control | [15] 100 % of control

Cc1ccc(S(=O)(=O)OC2CCCC2OS(=O)(=O)c2ccc(C)cc2)cc1 (stereo not given)
inactive: endpoint: mean survival time, dose: 100.0 mg/kg/injection, schedule: Q01DX001 (ip), vehicle: other 96 % of control | endpoint: mean survival time, dose: 200.0 mg/kg/injection, schedule: Q01DX001 (ip), vehicle: other 95 % of control | endpoint: mean survival time, dose: 400.0 mg/kg/injection, schedule: Q01DX001 (ip), vehicle: other 91 % of control

CCC(=O)Nc1cccc(OC(=O)NCCCl)c1
inactive: [11] 96 % of control | [12] 87 % of control | endpoint: mean survival time, dose: 400.0 mg/kg/injection, schedule: Q01DX009 (ip), vehicle: saline with Tween-80 86 % of control

Nc1sc(=S)nc2[nH]ncc12
inactive: endpoint: mean survival time, dose: 50.0 mg/kg/injection, schedule: Q01DX009 (ip), vehicle: Klucel (hydroxypropylcellulose) (HPC) 90 % of control | [5] 96 % of control | [6] 98 % of control | [7] 93 % of control | [8] 95 % of control | [10] 95 % of control

Cc1ccc(NC(=S)NCCc2ccccn2)cc1C
inactive: [5] 96 % of control | [7] 99 % of control | [9] 91 % of control

CC(=O)OC1=C(c2ccccc2)C(=O)c2ccccc21
inactive: endpoint: mean survival time, dose: 40.0 mg/kg/injection, schedule: Q01DX009 (ip), vehicle: Klucel (hydroxypropylcellulose) (HPC) 94 % of control | endpoint: mean survival time, dose: 75.0 mg/kg/injection, schedule: Q01DX001 (ip), vehicle: Klucel (hydroxypropylcellulose) (HPC) 95 % of control | endpoint: mean survival time, dose: 75.0 mg/kg/injection, schedule: Q01DX009 (ip), vehicle: Klucel (hydroxypropylcellulose) (HPC) 94 % of control | endpoint: mean survival time, dose: 150.0 mg/kg/injection, schedule: Q01DX001 (ip), vehicle: Klucel (hydroxypropylcellulose) (HPC) 96 % of control | endpoint: mean survival time, dose: 150.0 mg/kg/injection, schedule: Q01DX009 (ip), vehicle: Klucel (hydroxypropylcellulose) (HPC) 88 % of control

C[C@]12CC[C@H](O)C[C@H]1CC[C@@H]1[C@@H]2CC[C@]2(C)[C@@H](C3=CC(=O)OC3)CC[C@]12O
inactive: [1] 101 % of control | endpoint: median survival time, dose: 2.0 mg/kg/injection, schedule: Q01DX005 (ip), vehicle: water 98 % of control | endpoint: median survival time, dose: 4.0 mg/kg/injection, schedule: Q01DX005 (ip), vehicle: water 98 % of control | endpoint: median survival time, dose: 8.0 mg/kg/injection, schedule: Q01DX005 (ip), vehicle: water 103 % of control

Cc1ccc(NC(=O)NCCO)cc1C
inactive: endpoint: mean survival time, dose: 100.0 mg/kg/injection, schedule: Q04DX002 (ip), vehicle: saline with Tween-80 95 % of control | endpoint: mean survival time, dose: 200.0 mg/kg/injection, schedule: Q04DX002 (ip), vehicle: saline with Tween-80 95 % of control
